Reference: US11702646B2, “Methods for modulating RNA splicing” (PTC THERAPEUTICS, INC., priority 2016, dated 2023)

Experiments:
GM04856 lymphocyte cells = assay: Endpoint RT-PCR for iExon-containing spliced product in GM04856 lymphocyte cells; type: cell-based; conditions: 10 nM, 1 μM or 10 μM, ~20 h, FIGS. 2A-D and 3-6A
Method: Cell treatment: GM04856 lymphocyte cells were diluted in a medium composed of DMEM, 10% FBS and 1× Pen/Strep to a concentration of 2.5e5 cells/mL. 2 mL (500K cells) were seeded in 6-well plates and recovered for 4 h at 37° C., 5% CO2. Compound dilutions were prepared as 2× compound stock in medium (e.g. for final 100 nM, make a 200 nM stock). After 4 h recovery, 2 mL of the 2× compound stock were added to each well, resulting in 4 mL/well with 1× final compound concentration. The cells were incubated for ˜20 h at 37° C., 5% CO2. After incubation, the cells were pelleted for 5 min at 1000 rpm. The supernatant was vacuum-removed and the cells were resuspended in 350 μl of RLT buffer (w/10 μl/mL beta-mercapto-ethanol, RNeasy kit). Total RNA was isolated using the RNeasy Mini Kit from Qiagen according to the manufacturer's instructions. The concentration of the resulting total RNA was determined using Nanodrop and diluted with water to a final concentration of 25 ng/μL.
Endpoint PCR: 20 μL endpoint RT-PCR5 were set up in 96-well plates using the AgPath-ID One-Step RT-PCR Reagents (Applied Biosystems) according to the manufacturer. Each reaction contained 200 nM forward primer, 200 nM reverse primer, and 50 ng total RNA. […] 10 μL of each RT-PCR reactions were analyzed on 2% 48-well E-Gels (Invitrogen) (pre-run 1 min, run 14 min) and imaged using an BioRad Gel Doc EZ Imager. […]

[1] = tested on: RNA transcripts of genes having intronic REMS elements; assay: Change in isoform abundance and iExon/exon inclusion (ΔPSI, Fisher's Exact Test) in the presence of compound; type: cell-based; conditions: doses ranging from 0.3 μM to 3 μM, statistically significant adjusted Fisher's Exact Test p value
Method: Techniques known to one skilled in the art may be used to determine the amount of an RNA transcript(s). In some embodiments, the amount of one, two, three or more RNA transcripts is measured using deep sequencing, such as ILLUMINA® RNASeq, ILLUMINA® next generation sequencing (NGS), ION TORRENT™ RNA next generation sequencing, 454™ pyrosequencing, or Sequencing by Oligo Ligation Detection (SOLID™). In other embodiments, the amount of multiple RNA transcripts is measured using an exon array, such as the GENECHIP® human exon array. In certain embodiments, the amount of one, two, three or more RNA transcripts is determined by RT-PCR. In other embodiments, the amount of one, two, three or more RNA transcripts is measured by RT-qPCR or digital color-coded barcode technology. Techniques for conducting these assays are known to one skilled in the art. […]
Where “U” represents the value for probability of iExon inclusion (a+b)/2/[(a+b)/2+c]^U in the absence of the compound; and, where “C” represents the value for probability of iExon inclusion (a+b)/2/[(a+b)/2+c]^C in the presence of the compound. The values for “a” and “b” represent the number of reads supporting inclusion of an iExon in an RNA transcript. In other words, the “a” value is derived from the amount of reads for a first intronic nucleotide sequence comprising, in 5′ to 3′ order: a first exon having a 5′ splice site operably linked and upstream from a first intronic nucleotide sequence comprising a first branch point further operably linked and upstream from a first intronic 3′ splice site (upstream of the nascent iExon). The “b” value is derived from the amount of reads for a second intronic nucleotide sequence comprising, in 5′ to 3′ order: an iREMS sequence operably linked downstream from the first intronic 3′ splice site and upstream from a second intronic nucleotide sequence comprising a second branch point further operably linked and upstream from a second intronic 3′ splice site of a second exon. The value for “c” represents the number of reads supporting exclusion of an iExon. […]

CCc1nc(C)cn2nc(-c3cc(=O)n4cc(C5CCN(C)CC5)cc(C)c4n3)cc12 [Compound 774]
PCR product containing the intronic-derived exon (endpoint RT-PCR, agarose gel) (GM04856 lymphocyte cells): appearance of a slower migrating PCR product containing the intronic-derived exon | effect on change in isoform abundance as a result of having intronic REMS elements ([1]; genes of Table 7): demonstrate an effect on change in isoform abundance | effect on inclusion of an iExon with a corresponding change in isoform abundance ([1]; genes of Table 7a): demonstrate an effect on inclusion of an iExon with a corresponding change in isoform abundance | effect on inclusion of an exon with a corresponding change in isoform abundance ([1]; genes of Table 7b): demonstrate an effect on inclusion of an exon with a corresponding change in isoform abundance
